Results published in patent publication US7166296B2, “Pharmaceutical formulations and ligands for use therein; mimetics for UEA-1” (Sarlan, Ltd., priority 2001, dated 2007).
≈ marks a conversion by molar mass, not a printed value. One block for each molecule: values may come before it. Non-standard residues stand in square brackets, D forms with d. Residues, ends and D or L forms follow the SMILES beside them. *: point of attachment. Galloyl = O=C(c1cc(O)c(O)c(O)c1)*

Legend:
[1] = tested on: UEA-1 binding sites on Caco-2 cell membrane preparations; assay: Two tier competition assay: compound incubated alone with membranes, biotinylated UEA-1 added in next step; design: species or system human; settings: for Av % Inhibition: Two Tier Assay, library MSI 22
Method: (§1) The epithelial cell binding ability of compounds and mixtures obtained from synthetic combinatorial libraries was determined by competition assays. These assays were set up to measure the inhibition of binding of biotinylated UEA-1 to membrane preparations of the epithelial cell line Caco-2 (colon carcinoma cells-2), by compounds and mixtures of the combinatorial libraries. This cell line is a conventional model for epithelial cells.
(§2) Two competition inhibition assays were used in this case, namely single tier and two tier assays. These assays differed from each other in that in the single tier assay, the mixtures/compounds and the biotinylated UEA-1 were incubated together with the Caco-2 cell membrane preparations, while in case of the two-tier assay, the mixture/compounds were allowed to incubate alone with the cell membranes in the absence of biotinylated UEA-1, which was added in the next step. Addition of the extra step in the two-tier assay was to ensure that the compounds inhibiting the binding of biotinylated UEA-1 to the Caco-2 cell membranes were doing so by themselves binding to surface receptors on the Caco-2 cells and not to the biotinylated UEA-1. Each assay will be described in detail.
(§3) • 1. Confluent Caco-2 cell monolayers (grown in 75 cm^2 flasks for up to 1 week at 37° C. and 5% CO2) were washed twice in Dulbecco's PBS (DPBS). • 2. Cell monolayers were treated with 10 mM EDTA-DPBS for 5–10 min at 37° C. and cells were harvested by centrifugation at 1000 rpm for 5 min. • 3. Cells were washed 3 times in DPBS. • 4. […] The cells were homogenised for 30 sec. • 6. The homogenates were centrifuged in hard walled tubes at 40,000 rpm for 45 min at 4° C. • 7. […] The supernatant was removed and stored on ice. The procedure was repeated adding the second supernatant to the first. • 8. The protein concentration was determined using e.g. a Bio-Rad protein assay. • 9. All fractions were stored at −80° C. prior to use. Single Tier Assays: • 1. 96-well microtiter plates were coated with membrane preparations of Caco-2 cells either by allowing them to incubate on the plates for 2½ hours at room temperature or by incubating them overnight at 4° C. 100 μl of 10 μg/ml (in 0.05 M carbonate buffer, pH 9.6) of membrane preparation was added to each well. • 2. The plates were flicked out, patted dry and blocked with bovine serum albumin (BSA)/DPBS (200 μl/well) for 1 to 4 hours at room temperature after which they were washed three times in water. • 3. […] Control wells were also set up in which the Caco-2 cell membrane preparations were incubated with unconjugated UEA-1. […] Following overnight incubation the plates were washed thoroughly (3–6 times). The plates were flicked out, patted dry and biotinylated UEA-1 was detected with commercial Streptavidin conjugated to horseradish peroxidase (HRP) (CalBiochem). […] The plates were left to incubate for an hour at room temperature. • 6. The plates were then washed 3–6 times and the biotin-streptavidin binding was detected by adding an HRP substrate OPD (orthophenyl diamine) to each well. 100 μl/well of this substrate at a final concentration of 1.6 mg/ml was added to each well. Before adding to the wells, this substrate was activated by addition of 50 μl of 3% H2O2 per plate and the reaction was allowed to develop in the dark. • 7. The reaction was stopped by adding 50 μl of 4 N H2SO4 to each well after approximately 5–10 minutes or when sufficient colour had developed. The OD490 (absorbance at 490 nm) of each well was measured using a conventional 96 well plate reading spectrophotometer. Two Tier Assays: • 1. 96 well plates were coated with Caco-2 cell membrane preparations in the same manner as described in the single tier assay. • 2. […] 100 μl at these final concentrations were added to each well. • 4. The plates were then left to incubate overnight, a step that would allow the mixtures and compounds to interact with the Caco-2 cell membranes without the presence of the competitor (biotinylated UEA-1) itself. • 5. […]

[2] = tested on: UEA-1 binding sites on Caco-2 cell membrane preparations; assay: Single tier competition assay: inhibition of biotinylated UEA-1 binding, compound and biotinylated UEA-1 incubated together; design: species or system human; settings: for Av % Inhibition: Single Tier Assay, library MSI 22
Method: as §1, §2, §3

[3] = library MSI 27, read-out: Two Tier Assay IC50
[4] = library MSI 27, read-out: Single Tier Assay IC50
[5] = Table 8, galloyl constructs, read-out: IC 50 (uM) 2nd tier
[6] = Table 8, galloyl constructs, read-out: IC 50 (uM) 1st tier (converted)

Structure (SMILES): CC(=O)NC(CCCCNC(=O)c1ccc(O)cc1)C(=O)NC(CCCCNC(=O)c1ccc(O)cc1)C(N)=O (stereo not drawn) [Cpd 39]
Two Tier Assay IC50 ([1]; library MSI 27): 158.60 µg/mL
IC50 [1, 3]: 285 µM
IC50 [2, 4]: 450 µM

Structure (SMILES): CC(=O)NC(CCCCNC(=O)c1cc(O)cc(O)c1)C(N)=O (stereo not drawn) [Cpd 16]
Two Tier Assay IC50 ([1]; library MSI 27): 108.30 µg/mL
IC50 [1, 3]: 335 µM
IC50 [2, 4]: 773 µM

Structure (SMILES): COc1ccc(C(=O)NCCCCC(NC(=O)C(CCCCNC(=O)c2ccc(OC)c(OC)c2)NC(=O)C(CCCCNC(=O)c2ccc(OC)c(OC)c2)NC(C)=O)C(N)=O)cc1OC (stereo not drawn) [Cpd 50]
Two Tier Assay IC50 ([1]; library MSI 27): 42.79 µg/mL
IC50 [1, 3]: 45.7 µM
Single Tier Assay IC50 ([2]; library MSI 27): 77.09 µg/mL
IC50 [2, 4]: 82.4 µM

Structure (SMILES): CNC[C@@H](Cc1ccc(OC(=O)OCc2ccccc2Br)cc1)N(C)C[C@H](CC1CCCCC1)NC(=O)c1cc(OC)c(OC)c(OC)c1
Av % Inhibition ([1]; 62.5 μg/ml): 39.7%
Av % Inhibition ([1]; 250 μg/ml): 58.9%
Av % Inhibition ([2]; 62.5 μg/ml): −0%
Av % Inhibition ([2]; 250 μg/ml): −11.7%

Structure (SMILES): CCOc1ccc(C[C@H](CNC)N(C)C[C@H](CC2CCCCC2)NC(=O)c2cc(O)c(O)c(O)c2)cc1 [D-Tyr (Et), L-chAla, Gallic Acid]
Av % Inhibition ([1]; 62.5 μg/ml): 31.8%
Av % Inhibition ([1]; 250 μg/ml): 52.7%
Av % Inhibition ([2]; 62.5 μg/ml): 8.5%
Av % Inhibition ([2]; 250 μg/ml): 33.3%

Structure (SMILES): CC(=O)N[C@H](CCCCNC(=O)c1cc(O)c(O)c(O)c1)C(=O)N[C@H](CCCCNC(=O)c1cc(O)c(O)c(O)c1)C(=O)N[C@H](CCCCNC(=O)c1cc(O)c(O)c(O)c1)C(=O)N[C@H](CCCCNC(=O)c1cc(O)c(O)c(O)c1)C(=O)N[C@H](CCCCNC(=O)c1cc(O)c(O)c(O)c1)C(=O)N[C@H](CCCCNC(=O)c1cc(O)c(O)c(O)c1)C(N)=O [MSI 30 #11]
IC 50 (ug/ml) 2nd tier ([1]; Table 8, galloyl constructs): 2 µg/mL (≈ 1.15 µM)
IC50 [1, 5]: 1 µM
IC 50 (ug/ml) 1st tier ([2]; Table 8, galloyl constructs): 13 µg/mL (≈ 7.47 µM)
IC50 [2, 6]: 7 µM

Structure (SMILES): NC(=O)C(CCCCNC(=O)c1cc(O)c(O)c(O)c1)NC(=O)c1cc(O)c(O)c(O)c1 (stereo not drawn) [Cpd 6]
IC 50 (ug/ml) 2nd tier ([1]; Table 8, galloyl constructs): 8 µg/mL (≈ 17.8 µM)
IC50 [1, 5]: 17 µM
Two Tier Assay IC50 ([1]; library MSI 27): 12.97 µg/mL
IC50 [1, 3]: 28.9 µM
IC 50 (ug/ml) 1st tier ([2]; Table 8, galloyl constructs): 11 µg/mL (≈ 24.5 µM)
IC50 [2, 6]: 24 µM
Single Tier Assay IC50 ([2]; library MSI 27): 18.97 µg/mL
IC50 [2, 4]: 42.2 µM

Structure (SMILES): NC(=O)C(CCCCNC(=O)c1ccc(O)cc1)NC(=O)C(CCCCNC(=O)c1ccc(O)cc1)NC(=O)c1ccc(O)cc1 (stereo not drawn) [Cpd 31]
IC50 [1, 3]: 395 µM
IC50 [2, 4]: 395 µM

Other lines, results leading:

Two Tier Assay IC50 ([1]; library MSI 27): 114.80 µg/mL
IC50 [1, 3]: 95.7 µM
Single Tier Assay IC50 ([2]; library MSI 27): 90.15 µg/mL
IC50 [2, 4]: 75.1 µM
Structure (SMILES): CCOC(=O)Oc1c(OC)cc(C(=O)NCCCCC(NC(=O)C(CCCCNC(=O)c2cc(OC)c(OC(=O)OCC)c(OC)c2)NC(=O)C(CCCCNC(=O)c2cc(OC)c(OC(=O)OCC)c(OC)c2)NC(C)=O)C(N)=O)cc1OC (stereo not drawn) [Cpd 53]

IC 50 (ug/ml) 2nd tier ([1]; Table 8, galloyl constructs): 5 µg/mL (≈ 3.18 µM)
IC50 [1, 5]: 3 µM
IC 50 (ug/ml) 1st tier ([2]; Table 8, galloyl constructs): 23 µg/mL (≈ 14.6 µM)
IC50 [2, 6]: 14 µM
Structure (SMILES): NC(=O)[C@@H](CCCCNC(=O)c1cc(O)c(O)c(O)c1)NC(=O)[C@@H](CCCCNC(=O)c1cc(O)c(O)c(O)c1)NC(=O)[C@@H](CCCCNC(=O)c1cc(O)c(O)c(O)c1)NC(=O)[C@@H](CCCCNC(=O)c1cc(O)c(O)c(O)c1)NC(=O)[C@@H](CCCCNC(=O)c1cc(O)c(O)c(O)c1)NC(=O)c1cc(O)c(O)c(O)c1 [MSI 30 #10] (Galloyl-[dK](Galloyl)[dK](Galloyl)[dK](Galloyl)[dK](Galloyl)[dK](Galloyl)-NH2)

IC 50 (ug/ml) 2nd tier ([1]; Table 8, galloyl constructs): 1 µg/mL (≈ 1.08 µM)
IC50 [1, 5]: 1 µM
IC 50 (ug/ml) 1st tier ([2]; Table 8, galloyl constructs): 0.6 µg/mL (≈ 0.648 µM)
IC50 [2, 6]: 0.6 µM
Structure (SMILES): NC(=O)C(CCNC(=O)C(CCNC(=O)c1cc(O)c(O)c(O)c1)NC(=O)c1cc(O)c(O)c(O)c1)NC(=O)C(CCNC(=O)c1cc(O)c(O)c(O)c1)NC(=O)c1cc(O)c(O)c(O)c1 (stereo not drawn) [MSI 34 #6]

IC 50 (ug/ml) 2nd tier ([1]; Table 8, galloyl constructs): 0.5 µg/mL (≈ 0.775 µM)
IC50 [1, 5]: 0.8 µM
IC 50 (ug/ml) 1st tier ([2]; Table 8, galloyl constructs): 0.6 µg/mL (≈ 0.929 µM)
IC50 [2, 6]: 0.9 µM
Structure (SMILES): NC(=O)C(CNC(=O)c1cc(O)c(O)c(O)c1)NC(=O)C(CNC(=O)c1cc(O)c(O)c(O)c1)NC(=O)c1cc(O)c(O)c(O)c1 (stereo not drawn) [MSI 34 #9]
